SMILES strings stand for the structures.

The target in this test is Human V1b receptor (Homo sapiens (Human), UniProt P47901). In words: Binding Test for V1b Receptor ([3H]AVP, crude membrane preparation of 293FT cells). The conditions noted are these: inhibition of [3H]AVP binding (0.4 to 1 nmol/L), room temperature, 60 minutes. On the procedure:
Binding Test for V1b Receptor
Human V1b receptor was transiently expressed in 293FT cells (Invitrogen). The cells were collected and then homogenated in a 15 mmol/L tris-hydrochloric acid buffer (pH 7.4 and containing 2 mmol/L magnesium chloride, 0.3 mmol/L ethylenediaminetetracetic acid, and 1 mmol/L glycol ether diaminetetraacetic acid). The resulting homogenate was centrifuged at 50,000×g at 4° C. for 20 minutes. The precipitate was resuspended in a 75 mmol/L tris-hydrochloric acid buffer (pH 7.4 and containing 12.5 mmol/L magnesium chloride, 0.3 mmol/L ethylenediaminetetracetic acid, 1 mmol/L glycol ether diaminetetraacetic acid, and 250 mmol/L sucrose) to give a crude membrane preparation, which was stored at −80° C. until the binding test was initiated. In the binding test, the crude membrane preparation was diluted with a 50 mmol/L tris-hydrochloric acid buffer (pH 7.4 and containing 10 mmol/L magnesium chloride and 0.1% bovine serum albumin) and mixed with each test compound and [^3H]AVP (final concentration: 0.4 to 1 nmol/L), followed by incubation at room temperature for 60 minutes. The test compound was serially diluted with DMSO so that it would have final concentrations of 0.01 nmol/L to 1 μmol/L at the time of mixing. After the incubation, the mixture was suction filtered through a GF/C filter that was preliminarily impregnated with 0.3% polyethyleneimine. The GF/C filter was dried and after adding a scintillator, the residual radioactivity on the filter was measured using TopCount (PerkinElmer Inc.). The radioactivity in the presence of unlabeled AVP at […] was defined as 0%, and the radioactivity in the absence of unlabeled AVP was defined as 100%. A dose-response curve was plotted from radio activities in the presence of a test compound at various concentrations, and the 50% inhibitory concentration (IC50 value) of the test compound was calculated.

Human V1b receptor, sequence (P47901 whole entry): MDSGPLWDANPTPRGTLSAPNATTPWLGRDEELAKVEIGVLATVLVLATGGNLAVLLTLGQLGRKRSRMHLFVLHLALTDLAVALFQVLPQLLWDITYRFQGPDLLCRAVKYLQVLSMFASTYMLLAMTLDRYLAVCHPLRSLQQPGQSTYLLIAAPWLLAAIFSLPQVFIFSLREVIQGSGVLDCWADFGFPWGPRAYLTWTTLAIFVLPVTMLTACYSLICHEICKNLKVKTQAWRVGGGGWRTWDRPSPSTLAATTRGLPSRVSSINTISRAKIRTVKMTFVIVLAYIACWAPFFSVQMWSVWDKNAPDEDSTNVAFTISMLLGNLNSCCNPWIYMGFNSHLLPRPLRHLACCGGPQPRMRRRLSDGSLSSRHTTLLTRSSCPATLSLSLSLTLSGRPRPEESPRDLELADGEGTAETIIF

Consider `CC(C)NC(=O)Cn1cc(-c2ccc(CCN3CCC(O)CC3)cc2)nc1-c1cccc(Cl)c1` [Example A-04, 2-[2-(3-chlorophenyl)-4-{4-[2-(4-hydroxypiperidin-1-yl)ethyl]phenyl}-1H-imidazol-1-yl]-N-(propan-2-yl)acetamide], for which the IC50 (usually the point on the concentration scale where inhibition reaches its midpoint) lay in the range of 10 to 100 nM.
The figure for `CC(C)NC(=O)Cn1cc(-c2ccc(CCN3CCOCC3)cc2)nc1-c1ccc(F)c(Cl)c1` [Example A-39, 2-[2-(3-chloro-4-fluorophenyl)-4-{4-[2-(morpholin-4-yl)ethyl]phenyl}-1H-imidazol-1-yl]-N-(propan-2-yl)acetamide] is 1 nM.
As to `CC(C)NC(=O)Cc1cn(-c2ccc(CCN3CCOCC3)cc2)nc1-c1cccc(Cl)c1` [Example C-03, 2-[3-(3-chlorophenyl)-1-{4-[2-(morpholin-4-yl)ethyl]phenyl}-1H-pyrazol-4-yl]-N-(propan-2-yl)acetamide], the IC50 was 8.6 nM.
The molecule `COc1cc(-n2c(CC(=O)NC(C)C)nn(-c3ccc(CCN4C5CCC4COC5)c(OC)c3)c2=O)ccc1F` [Example D-41, 2-[4-(4-fluoro-3-methoxyphenyl)-1-{3-methoxy-4-[2-(3-oxa-8-azabicyclo[3.2.1]oct-8-yl)ethyl]phenyl}-5-oxo-4,5-dihydro-1H-1,2,4-triazol-3-yl]-N-(propan-2-yl)acetamide] came in with an IC50 of 2.7 nM.
The figure for `CC(C)NC(=O)Cc1oc(-c2ccc(CCN3CCOCC3)cc2)nc1-c1cccc(Cl)c1` [Example C-11, 2-[4-(3-chlorophenyl)-2-{4-[2-(morpholin-4-yl)ethyl]phenyl}-1,3-oxazol-5-yl]-N-(propan-2-yl)acetamide] is 3.9 nM; for `COc1cccc(-c2nc(-c3ccc(CC(C)N4C5CCC4COC5)cc3)nn2CC(=O)NC(C)C)c1` (centres unmarked) [Example B-20, 2-[5-(3-methoxyphenyl)-3-{4-[2-(3-oxa-8-azabicyclo[3.2.1]oct-8-yl)propyl]phenyl}-1H-1,2,4-triazol-1-yl]-N-(propan-2-yl)acetamide] it is 0.43 nM.
`CC(C)NC(=O)Cc1nn(-c2ccc(CCN3CC=CCC3)cc2)c(=O)n1-c1cccc(Cl)c1` [Example D-47, 2-[4-(3-chlorophenyl)-1-{4-[2-(3,6-dihydropyridin-1(2H)-yl)ethyl]phenyl}-5-oxo-4,5-dihydro-1H-1,2,4-triazol-3-yl]-N-(propan-2-yl)acetamide]: the IC50 is 100 to 1000 nM.
As to `COc1cccc(-c2nc(-c3ccc(CCN4CC5(COC5)C4)cc3)nn2CC(=O)NC(C)C)c1` [Example B-42, 2-[5-(3-methoxyphenyl)-3-{4-[2-(2-oxa-6-azaspiro[3.3]hept-6-yl)ethyl]phenyl}-1H-1,2,4-triazol-1-yl]-N-(propan-2-yl)acetamide], the IC50 is less than 10 nM.
`COc1cccc(-c2nc(-c3ccc(CCN4CCC(C#N)CC4)cc3)nn2CC(=O)NC(C)C)c1` [Example B-24, 2-[3-{4-[2-(4-cyanopiperidin-1-yl)ethyl]phenyl}-5-(3-methoxyphenyl)-1H-1,2,4-triazol-1-yl]-N-(propan-2-yl)acetamide] returned an IC50 of 100 to 1000 nM.
`CC(C)NC(=O)Cn1nc(-c2ccc(CCN3C4CCC3COC4)cc2)nc1-c1cccc(Cl)c1` [Example B-01, 2-[5-(3-chlorophenyl)-3-{4-[2-(3-oxa-8-azabicyclo[3.2.1]oct-8-yl)ethyl]phenyl}-1H-1,2,4-triazol-1-yl]-N-(propan-2-yl)acetamide] displayed an IC50 of 1.4 nM. That is a single-digit nanomolar value.
`CC(C)NC(=O)Cn1nc(-c2ccc(CCN3CCOCC3)cn2)nc1-c1cccc(Cl)c1` [Example B-10, 2-[5-(3-chlorophenyl)-3-{5-[2-(morpholin-4-yl)ethyl]pyridin-2-yl}-1H-1,2,4-triazol-1-yl]-N-(propan-2-yl)acetamide]: the IC50 is 12 nM. Compared with the last molecule, the IC50 is about 8.6-fold higher.
As for `COc1cccc(-c2nc(-c3ccc(CCN4CCC5CCCCC5C4)cc3)nn2CC(=O)NC(C)C)c1` (centres unmarked) [Example B-27, 2-[5-(3-methoxyphenyl)-3-{4-[2-(octahydroisoquinolin-2(1H)-yl)ethyl]phenyl}-1H-1,2,4-triazol-1-yl]-N-(propan-2-yl)acetamide], the figure is 10 to 100 nM; as for `CC(C)NC(=O)Cc1nc(-c2cccc(CCN3CCOCC3)c2)sc1-c1cccc(Cl)c1` [Example C-17, 2-[5-(3-chlorophenyl)-2-{3-[2-(morpholin-4-yl)ethyl]phenyl}-1,3-thiazol-4-yl]-N-(propan-2-yl)acetamide], 100 to 1000 nM.
As for `Cc1c(-c2cccc(Cl)c2)n(CC(=O)NC(C)C)c(=O)n1-c1ccc(CCN2CCOCC2)cc1` [Example C-20, 2-[5-(3-chlorophenyl)-4-methyl-3-{4-[2-(morpholin-4-yl)ethyl]phenyl}-2-oxo-2,3-dihydro-1H-imidazol-1-yl]-N-(propan-2-yl)acetamide], the IC50 lay within 10 to 100 nM.
As for `COc1cc(-c2nc(-c3ccc(CCN4C5CCC4CC(O)C5)cc3)cn2CC(=O)NC(C)C)ccc1F` (centres unmarked) [Example A-15, 2-[2-(4-fluoro-3-methoxyphenyl)-4-{4-[2-(3-hydroxy-8-azabicyclo[3.2.1]oct-8-yl)ethyl]phenyl}-1H-imidazol-1-yl]-N-(propan-2-yl)acetamide], the figure is 2.4 nM; as for `COc1cncc(-c2nc(-c3ccc(CCN4CCOCC4)cc3)cn2CC(=O)NC(C)C)c1` [Example A-40, 2-[2-(5-methoxypyridin-3-yl)-4-{4-[2-(morpholin-4-yl)ethyl]phenyl}-1H-imidazol-1-yl]-N-(propan-2-yl)acetamide], 10 to 100 nM.
As for `COc1cccc(-n2c(CC(=O)NC(C)(C)C)nn(-c3ccc(CCN4CCOCC4)cc3)c2=O)c1` [Example D-06, N-tert-butyl-2-[4-(3-methoxyphenyl)-1-{4-[2-(morpholin-4-yl)ethyl]phenyl}-5-oxo-4,5-dihydro-1H-1,2,4-triazol-3-yl]acetamide], the figure is 4.6 nM; as for `COc1cc(-c2nc(-c3ccc(CCN4CCCC4)cc3)cn2CC(=O)NC(C)C)ccc1F` [Example A-11, 2-[2-(4-fluoro-3-methoxyphenyl)-4-{4-[2-(pyrrolidin-1-yl)ethyl]phenyl}-1H-imidazol-1-yl]-N-(propan-2-yl)acetamide], 10 nM; as for `CC(C)NC(=O)Cc1nn(-c2ccc(CCN3CCC(F)(F)CC3)cc2)c(=O)n1-c1cccc(Cl)c1` [Example D-58, 2-[4-(3-chlorophenyl)-1-{4-[2-(4,4-difluoropiperidin-1-yl)ethyl]phenyl}-5-oxo-4,5-dihydro-1H-1,2,4-triazol-3-yl]-N-(propan-2-yl)acetamide], 10 to 100 nM.
`CC(C)NC(=O)Cn1cc(-c2ccc(CCN3CCOCC3)cn2)nc1-c1cccc(Cl)c1` [Example A-26, 2-[2-(3-chlorophenyl)-4-{5-[2-(morpholin-4-yl)ethyl]pyridin-2-yl}-1H-imidazol-1-yl]-N-(propan-2-yl)acetamide] displayed an IC50 of 3.4 nM.
In turn, `COc1cccc(-n2c(CC(=O)NC(C)C)nn(-c3ccc(CCN4C5CCC4COC5)c(OC)c3)c2=O)c1` [Example D-42, 2-[1-{3-methoxy-4-[2-(3-oxa-8-azabicyclo[3.2.1]oct-8-yl)ethyl]phenyl}-4-(3-methoxyphenyl)-5-oxo-4,5-dihydro-1H-1,2,4-triazol-3-yl]-N-(propan-2-yl)acetamide] displayed an IC50 of 7.9 nM.
Take `COc1cc(-c2nc(-c3ccc(CCN4CCCCC4)cc3)cn2CC(=O)NC(C)C)ccc1F` [Example A-09, 2-[2-(4-fluoro-3-methoxyphenyl)-4-{4-[2-(piperidin-1-yl)ethyl]phenyl}-1H-imidazol-1-yl]-N-(propan-2-yl)acetamide]: the IC50 was found to be 16 nM.
In turn, `CC(C)NC(=O)Cn1cc(-c2cccc(OCCCN3CCCCC3)c2)nc1-c1cccc(Cl)c1` [Example A-35, 2-[2-(3-chlorophenyl)-4-{3-[3-(piperidin-1-yl)propoxy]phenyl}-1H-imidazol-1-yl]-N-(propan-2-yl)acetamide] yielded an IC50 of 100 to 1000 nM.
Regarding `COc1cccc(-c2nc(-c3ccc(CCN4C5CCC4COC5)cn3)nn2CC(=O)NC(C)C)c1` [Example B-05, 2-[5-(3-methoxyphenyl)-3-{5-[2-(3-oxa-8-azabicyclo[3.2.1]oct-8-yl)ethyl]pyridin-2-yl}-1H-1,2,4-triazol-1-yl]-N-(propan-2-yl)acetamide], the half-inhibitory concentration (IC50) stood at 11 nM.
As for `COc1cccc(-c2nc(-c3ccc(CCN4C[C@@H](C)O[C@@H](C)C4)cc3)nn2CC(=O)NC(C)C)c1` [Example B-29, 2-[3-(4-{2-[(2R,6S)-2,6-dimethylmorpholin-4-yl]ethyl}phenyl)-5-(3-methoxyphenyl)-1H-1,2,4-triazol-1-yl]-N-(propan-2-yl)acetamide], the figure is 10 to 100 nM; as for `CC(C)(C)NC(=O)Cc1nn(-c2ccc(CCN3CCOCC3)cc2)c(=O)n1-c1ccc(F)c(Cl)c1` [Example D-30, N-tert-butyl-2-[4-(3-chloro-4-fluorophenyl)-1-{4-[2-(morpholin-4-yl)ethyl]phenyl}-5-oxo-4,5-dihydro-1H-1,2,4-triazol-3-yl]acetamide], 2.8 nM.
